Laboratory results taken from patent US6559115B1, “Detergent tablet with high mechanical and dissolution characteristics” (The Procter & Gamble Company, priority 1998, dated 2003).

Columns and labels:
[1] = Tablet compression and tensile strength (diametrical fracture stress); format: physicochemical; details: tensile strength increased by over 30% by 3% compound at compacting force 3000N
Excerpt: For the purpose of this invention, the Cohesive Effect on the particulate material of a detergent matrix is characterised by the force required to break a tablet based on the examined detergent matrix pressed under controlled compression conditions. […] Means to assess tablet strength (also refer to diametrical fracture stress) are given in Pharmaceutical dosage forms: tablets volume 1 Ed. H. A. Lieberman et al, published in 1989.
The temperature of the addition is between 10 and 80 C., more pref. between 10 and 40 C.
For a cylindrical tablet, the tensile strength corresponds to the diametrical fracture stress (DFS) which is a way to express the strength of a tablet, and is determined by the following equation: [formula]
Where F is the maximum force (Newton) to cause tensile failure (fracture) measured by a VK 200 tablet hardness tester supplied by Van Kell industries, Inc. D is the diameter of the tablet, and t the thickness of the tablet.
iii) Tablets were then made the following way: 50 g of the mixture was introduced into a mould of circular shape with a diameter of 5.5 cm and compressed to give a tablet tensile strength (or diametrical fracture stress) of 15 kPa. The force required to obtain a tablet tensile strength of 15 kPa was 2400 N. The tablet height was 1.94 cm.

[2] = Conductivity test defining a highly soluble compound; format: physicochemical; details: conductivity reaches 80% of maximum in less than 10 seconds
Protocol: A solution is prepared as follows comprising de-ionised water as well as 20 grams per liter of a specific compound:
1—20 g of the specific compound is placed in a Sotax Beaker. This beaker is placed in a constant temperature bath set at 10° C. A stirrer with a marine propeller is placed in the beaker so that the bottom of the stirrer is at 5 mm above the bottom of the Sotax beaker. The mixer is set at a rotation speed of 200 turns per minute.
2—980 g of the de-ionised water is introduced into the Sotax beaker.
3—10 s after the water introduction, the conductivity of the solution is measured, using a conductivity meter.
4—Step 3 is repeated after 20, 30, 40, 50, 1 min, 2 min, 5 min and 10 min after step 2.
5—The measurement taken at 10 min is used as the plateau value or maximum value.

Substance: sodium di isoalkylbenzene sulphonate [Compounds of Example 1]
- Cohesive effect on the particulate material [1]: having a cohesive effect
- Highly soluble compound according to the invention [2]: highly soluble
